# Patent US20190175691A1, “METHODS FOR DETECTING AND MODULATING THE EMBRYONIC-FETAL TRANSITION IN MAMMALIAN SPECIES” (BioTime, Inc., priority 2016, published 2019)
# Starred links: 1 amine or outer side, 2 acyl side, 3 side chain; linkers in the order of their positions; H or OH if unused. Positions of bridges follow the written chain, without caps; N, C: chain ends. Non-standard residues stand in square brackets, D forms with d. Residues, ends and D or L forms follow the SMILES beside them. Chains are numbered I, II in the order given. Actinocin(9to1) = Cc1c2oc3c(C)ccc(C(=O)[*:1])c3nc-2c(C(=O)[*:2])c(N)c1=O; NMeV = CN[C@H](C(=O)O)C(C)C; Sar = CNCC(=O)O
# B1: AMH: anti-Mullerian hormone (AMH), secreted protein iTR factor (protein, UniProt P03971 452-560, looked up)
# Muellerian-inhibiting factor: SAGATAADGPCALRELSVDLRAERSVLIPETYQANNCQGVCGWPQSDRNPRYGNHVVLLLKMQVRGAALARPPCCVPTAYAGKLLISLSEERISAHHVPNMVATECGCR
# Test system: adult-derived MDW fibroblasts
# Experiment: Scratch test on confluent MDW fibroblast monolayer
# Type: cell-based
# Settings: MDW passage 5, 1.5 mm scratch, 24 hours; 0.5 mM valproic acid, 10 ng/mL AMH, 20 ng/mL GFER; control 20%
# Protocol: The identification of the secreted protein iTR factors GFER and AMH as well as the agent valproic acid, provides a novel cocktail of factors to generate iTR in vitro as well as in vivo. To determine the effects of the factors, cultured adult-derived MDW fibroblasts as well as umbilical cord-derived MSCs (MSCwj) were treated with varying concentrations of the factors and the rate of growth and regrowth following a scratch test are performed.
# (§1) The fibroblast line MDW (passage 5) is seeded in multiple wells of a 6 well plate and cultured to confluence. A 1.5 mm “scratch” was introduced onto the monolayer using a 200 ul pipette tip, thereby denuding the fibroblasts from the culture surface. Factors including 0.5 mM valproic acid, 10 ng/mL AMH, and 20 ng/mL GFER are added to the growth medium which as DMEM medium supplemented with 10% FBS. 24 hours later, the % of the denuded surface was determined by phase contrast microscopy. […] Due to the lability and diffusion of the factors when administered in vivo, the formulation of the factors alone or in combination in a hydrogel such as crosslinked hyaluronic acid or crosslinked hyaluronic acid and collagen provides a preferred method of delivering the factors to increase tissue regeneration in animals. Alternatively, umbilical cord-derived MSCs (MSCwj) and adult skin fibroblasts (MDW) each of which express fetal/adult markers such as COX7A1 are treated with the secreted form of GFER alone at concentrations of 0, 10.0 and 100 ng/mL in DMEM medium supplemented with 10% FBS an AMH
row,Molecule,regeneration (coverage of the denuded wounded zone)
1,CCCC(CCC)C(=O)O [valproic acid],25%
2,"GFER: GFER (Augmenter of Liver Regeneration (ALR)), secreted protein iTR factor",28%
3,B1,68%

# Test system: COX7A1 transcript
# Experiment: Screen for iCM factors: increase of COX7A1 transcript in cancer cell lines
# Type: cell-based
# Settings: Lung (A549), breast (MCF7), and prostate (PC3) cancer cell lines
# Description: Lung (A549), breast (MCF7), and prostate (PC3) cancer cell lines were exposed to diverse factors including biologically active small molecules as well as RNAi directed to specific genes and the relative increase in levels of COX7A1 transcript was used as a marker of iCM.
row,Molecule,COX7A1 expression (relative increase of COX7A1 transcript as marker of iCM)
1,CC[C@@H]1C(=O)N(C)c2cnc(Nc3ccc(C(=O)NC4CCN(C)CC4)cc3OC)nc2N1C1CCCC1 [BI 2536],increased COX7A1 expression
2,CCc1c2c(nc3ccc(O)cc13)-c1cc3c(c(=O)n1C2)COC(=O)[C@]3(O)CC [SN-38],increased COX7A1 expression
3,CN1CC[C@H](c2c(O)cc(O)c3c(=O)cc(-c4ccccc4Cl)oc23)[C@H](O)C1 [alvocidib],increased COX7A1 expression
4,CC1(C)[C@@H](OC(=O)CCC(=O)O)CC[C@]2(C)[C@H]3C(=O)C=C4[C@@H]5C[C@@](C)(C(=O)O)CC[C@]5(C)CC[C@@]4(C)[C@]3(C)CC[C@@H]12 [carbenoxolone],increased COX7A1 expression
5,"Cc1c2oc3c(C)ccc(C(=O)N[C@@H]4C(=O)N[C@H](C(C)C)C(=O)N5CCC[C@H]5C(=O)N(C)CC(=O)N(C)[C@@H](C(C)C)C(=O)O[C@@H]4C)c3nc-2c(C(=O)N[C@@H]2C(=O)N[C@H](C(C)C)C(=O)N3CCC[C@H]3C(=O)N(C)CC(=O)N(C)[C@@H](C(C)C)C(=O)O[C@@H]2C)c(N)c1=O [dactinomycin] (I: T[dV]P[Sar][NMeV] / II: T[dV]P[Sar][NMeV]; ester I:1-I:C, II:1-II:C; linker I:N-II:N via Actinocin(9to1))",increased COX7A1 expression
6,COc1cccc2c1C(=O)c1c(O)c3c(c(O)c1C2=O)C[C@@](O)(C(C)=O)C[C@@H]3O[C@H]1C[C@H](N)[C@H](O)[C@H](C)O1 [daunorubicin],increased COX7A1 expression
7,COc1cccc2c1C(=O)c1c(O)c3c(c(O)c1C2=O)C[C@@](O)(C(=O)CO)C[C@@H]3O[C@H]1C[C@H](N)[C@H](O)[C@H](C)O1 [doxorubicin],increased COX7A1 expression
8,Cc1onc(-c2c(F)cccc2Cl)c1C(=O)N[C@@H]1C(=O)N2[C@@H]1SC(C)(C)[C@@H]2C(=O)O [flucloxacillin],increased COX7A1 expression
9,COc1cc2ncnc(Nc3ccc(F)c(Cl)c3)c2cc1OCCCN1CCOCC1 [gefitinib],increased COX7A1 expression
10,CCN(CC)Cc1ccc2cc(COC(=O)Nc3ccc(C(=O)NO)cc3)ccc2c1 [givinostat],increased COX7A1 expression
11,O=C1c2c(O)ccc(O)c2C(=O)c2c(NCCNCCO)ccc(NCCNCCO)c21 [mitoxantrone],increased COX7A1 expression
12,CN[C@@H]1C[C@H]2O[C@@](C)([C@@H]1OC)n1c3ccccc3c3c4c(c5c6ccccc6n2c5c31)C(=O)NC4 [staurosporine],increased COX7A1 expression
13,COc1cc([S+](C)[O-])ccc1-c1nc2ncccc2[nH]1 (stereo not shown) [sulmazole],increased COX7A1 expression
14,COc1cc([C@@H]2c3cc4c(cc3[C@@H](O[C@@H]3O[C@@H]5CO[C@@H](c6cccs6)O[C@H]5[C@H](O)[C@H]3O)[C@H]3COC(=O)[C@H]23)OCO4)cc(OC)c1O [teniposide],increased COX7A1 expression
15,CC(/C=C/C(=O)NO)=C\[C@@H](C)C(=O)c1ccc(N(C)C)cc1 [trichostatin-A],increased COX7A1 expression
16,CC(C)[C@]12O[C@H]1[C@@H]1O[C@]13[C@]1(O[C@H]1C[C@H]1C4=C(CC[C@@]13C)C(=O)OC4)[C@@H]2O [triptolide],increased COX7A1 expression
17,calyculin,increased COX7A1 expression

# Test system: umbilical cord-derived MSCs (MSCwj) and adult skin fibroblasts (MDW)
# Experiment: Percent confluency after 80 hours with secreted GFER
# Type: cell-based
# Settings: secreted GFER 0, 10.0 and 100 ng/mL, DMEM 10% FBS
# Protocol: as §1
# d cultured for 80 hours and the % confluency is determined.
row,Molecule,confluency achieved
1,"GFER: GFER (Augmenter of Liver Regeneration (ALR)), secreted protein iTR factor",dose-dependent increase in confluency

# Test system: MDW adult-derived skin fibroblasts
# Experiment: Illumina bead array expression of COX7A1 and COL1A1 in MDW fibroblasts
# Type: cell-based
# Settings: MDW passage 6-7, 6 days, mRNA for cMYC or SOX2 + 0.5 mM valproic acid
Molecule,expression of COX7A1,expression of the fibrosis marker COL1A1
CCCC(CCC)C(=O)O [valproic acid],reduced expression of COX7A1,decreased expression of the fibrosis marker COL1A1

# Test system: COX7A1 transcript
# Experiment: Screen for iTR factors: reduction of COX7A1 transcript in cancer cell lines
# Type: cell-based
# Settings: Lung (A549), breast (MCF7), and prostate (PC3) cancer cell lines
# Description: Values under cell lines represent proportional decreased values for COX7A1 transcript in the cell line.
# Lung (A549), breast (MCF7), and prostate (PC3) cancer cell lines were exposed to diverse factors including biologically active small molecules as well as RNAi directed to specific genes and the relative reduction of levels of COX7A1 transcript was used as a marker of iTR.
row,Molecule,COX7A1 expression (relative reduction of COX7A1 transcript as marker of iTR)
1,CCn1cc(-c2ccnc3[nH]c(-c4cccc(CN(C)C)c4)cc23)c(-c2ccc(NC(=O)N(C)C)cc2)n1 [GSK1070916],reduce COX7A1 expression
2,O=C(O)[C@]1(Cc2cccc(Nc3nccs3)n2)CC[C@@H](Oc2cccc(Cl)c2F)CC1 [MK-5108],reduce COX7A1 expression
3,CO[C@H]1/C=C\C=C(/C)C(=O)NC2=CC(=O)C(NCCN(C)C)=C(C[C@@H](C)C[C@H](OC)[C@H](O)[C@@H](C)/C=C(\C)[C@@H]1OC(N)=O)C2=O [alvespimycin],reduce COX7A1 expression
4,COc1cc(/C=C/C(=O)CC(=O)/C=C/c2ccc(O)c(OC)c2)ccc1O [curcumin],reduce COX7A1 expression
5,C[C@@H]1C[C@H]2O[C@@H]2/C=C\C=C\C(=O)Cc2c(Cl)c(O)cc(O)c2C(=O)O1 [radicocol],reduce COX7A1 expression
